Measured values from paper PMC7822874, “Chemoprotective antimalarials identified through quantitative high-throughput screening of Plasmodium blood and liver stage parasites” (Scientific Reports, 2021).
Values joined by “and” are separate entries in the source; they are usually repeats but may differ in a detail not shown here. Identical values can stand only once. Like-named read-outs stand apart in the source and are kept apart here.

Legend:
HepG2-A16-CD81EGFP cells = settings: for Average HepG2 3 µM response( %): averaged response (percent)
[1] = test system: P. falciparum Dd2 (clone B2) asexual blood stage parasites; test: P. falciparum Dd2 asexual blood stage SYBR Green-I 72 h proliferation assay (qHTS); type: cell-based, Plasmodium falciparum; settings: for Pf ABS Log AC50 (M): averaged P. falciparum asexual blood stage potency, log10 of AC50 in M
[2] = test system: P. berghei-ANKA-GFP-LucCON liver stage parasites in HepG2-A16-CD81EGFP cells; test: P. berghei liver stage Pb-Luc assay, Method 1 (UCSD, 1536-well); type: cell-based, Plasmodium berghei; settings: for Average P. berghei 3 µM response( %) / Average P. berghei 1 µM response (%): P. berghei liver stage, averaged response (percent); for Average P. berghei 1 µM response (%): the header list (r8) defines it as the 1 µM dose; for activity at 1 µM / activity at 3 µM / AC50: Plasmodium berghei; for activity at 1 µM / activity at 3 µM: 48 h, average of 2 wells, 1536-well plate; for activity at 1 µM: nominal 1 uM (10 mM stock), […] for 15 mM, 1.2 uM for 12 mM, 2 uM for 20 mM stock; for activity at 3 µM: nominal 3 uM (10 mM stock), 4.5 uM for 15 mM, 3.6 uM for 12 mM, 6 uM for 20 mM stock
[3] = test system: T1, Plasmodium falciparum Dd2-attB (parental line), asexual blood stages; test: microbe, parasite or virus in culture; set-up: replicate k of 3 (each line is one of three independent assays; the three lines of one compound and parasite line follow each other); settings: 72 h; n = 1
T1 construct: Dd2-attB, the isogenic parental line
Procedure, shortened: (§1)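 We compare activity in parasites carrying fumarate-using yeast DHODH with that in the parental line; mETC or parasite DHODH inhibitors are bypassed by this enzyme. Data come from three independent assays, analysed by two-sided Student's t-tests.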

in vitro = settings: human, HepG2-A16-CD81EGFP cells, uninfected
[4] = test system: luciferase-expressing P. berghei liver stage parasites in HepG2 cells; test: Inhibition of liver-stage development assay (ILSDA), Method 2 (WRAIR, 96-well); type: cell-based, Plasmodium berghei; settings: P. berghei liver stage, Method 2, dose response
[5] = test system: T2, Plasmodium falciparum Dd2-attB-ScDHODH (transgenic line expressing yeast DHODH), asexual blood stages; test: organism not typed; set-up: replicate k of 3 (each line is one of three independent assays; the three lines of one compound and parasite line follow each other); settings: 72 h, n = 1
T2 construct: Dd2-attB-ScDHODH, the transgenic line that expresses yeast DHODH
Procedure, shortened: as §1

[6] = test system: Plasmodium falciparum Dd2 asexual blood stage parasites; test: microbe, parasite or virus in culture; set-up: species or system Plasmodium falciparum Dd2 in human erythrocytes; single determination (one 11-point concentration-response curve); settings: Plasmodium falciparum, DD2, Erythrocyte, 72 h; read-out: AC50
[7] = HepG2, the header list (r10) describes it as the 1 µM dose

Row | Structure (SMILES) | Average HepG2 3 µM response( %) (HepG2-A16-CD81EGFP cells; HepG2, 3 µM dose) | Average HepG2 3 µM response( %) (HepG2-A16-CD81EGFP cells; [7]) | Pf ABS Log AC50 (M) [1] | Average P. berghei 3 µM response( %) [2] | Average P. berghei 1 µM response (%) [2] | other results
1 | COc1cccc(OC)c1C(=O)NC(S)=Nc1ccc2c(c1)C(=O)N(C)C2=O [MLS000331897] | 104% | 104% | -6.025 M | 113% | 122% | 
2 | Oc1ccc(-c2nnc(S)n2-c2ccc3c(c2)OCCO3)c(O)c1 [MLS000332001] | 95% | 101% | -6.012 M | 70% | 78% | 
3 | OC(CN1CCN(c2ccccn2)CC1)Cn1c2ccc(Cl)cc2c2cc(Cl)ccc21 (stereo not shown) [MLS000529159] | 102% | 102% | -5.612 M | 77% | 108% | 
4 | CCOC(=O)c1c[nH]c2c(C)cc(C)cc2c1=O [MLS000530578] | 102% | 102% | -5.437 M | 9.48% | 49% | 
5 | COc1ccc(C2=C(Nc3ccc(C)cc3)c3ccccc3C2=O)cc1 [MLS000563980] | 89% | 94% | -5.637 M | 25% | 81% | 
6 | Br.CCOC(=O)c1c(CSC(=N)N)n(-c2ccc(Br)cc2)c2cc(Br)c(OC(C)=O)cc12 [MLS000595146] | 102% | 101% | -5.712 M | 73% | 88% | 
7 | O=C(/C=C/c1ccco1)NC(=S)Nc1ccccc1N1CCCC1 [MLS000663784] | 105% | 105% | -5.575 M | 104% | 113% | 
8 | c1cc(Nc2ncnc3sc4c(c23)CCC4)ccn1 [MLS000681348] | 103% | 103% | -5.462 M | 95% | 92% | 
9 | Cc1cc(Cl)c(S(=O)(=O)N2CCN(c3ccccn3)CC2)cc1OCC(=O)NC1CCCCC1 [MLS000693481] | 100% | 93% | -6.387 M | 74% | 99% | 
10 | CCOC(=O)Cn1c2c(c(=N)c3c1CCC3)CCCC2 [MLS000702567] | 104% | 104% | -4.912 M | 104% | 95% | 
11 | Cc1nn(-c2nnc(NCc3ccccc3)nn2)c(C)c1Br [MLS000704225] | 93% | 102% | -6.187 M | 57% | 106% | 
12 | CCCN1C(CC(C)C)=N[S+](=O)([O-])c2cc(NC(=O)c3ccco3)ccc21 [NCGC00473219-01] |  |  |  |  |  | Individual replicates / Log AC50 (M) [3]: -6.1986 Log AC50 (M) and -5.7986 Log AC50 (M) and -6.3486 Log AC50 (M); HepG2 viability signal, 1 uM, repeat 2 (HepG2-A16-CD81EGFP cells): 101.29%; HepG2 viability signal, 3 uM, repeat 2 (HepG2-A16-CD81EGFP cells): 102.75%; viability at 48 h, 1 µM (in vitro): 103%; viability at 48 h, 3 µM (in vitro): 105%; Activity direction (Decrease / Inactive) [4]: Inactive; Individual replicates / Log AC50 (M) [5]: -5.5986 Log AC50 (M) and -5.4986 Log AC50 (M) and -5.2486 Log AC50 (M); AC50 [6]: 7500 nM; Max Resp (signal direction of the dose response) ([2]; Method 1, Decrease = decreasing P. berghei viability with dose, Increase = increasing signal, Inactive = no dose response): Decrease; activity at 1 µM ([2]; repeat 1, read-out: Pb-Luc signal, 1 uM, repeat 1): 32.3%; activity at 1 µM ([2]; repeat 2, read-out: Pb-Luc signal, 1 uM, repeat 2): 25.4%; activity at 1 µM ([2]; repeat 3, read-out: Pb-Luc signal, 1 uM, repeat 3): 19.9%; activity at 3 µM ([2]; repeat 1, read-out: Pb-Luc signal, 3 uM, repeat 1): 11.9%; activity at 3 µM ([2]; repeat 2, read-out: Pb-Luc signal, 3 uM, repeat 2): 8.91%; activity at 3 µM ([2]; repeat 3, read-out: Pb-Luc signal, 3 uM, repeat 3): 10.7%; AC50 ([2]; Method 1, Hill fit, 50% of maximum activity response, read-out: AC50): 631 nM; AC50 ([2]; Method 1, log10 of molar AC50 from Hill fit, read-out: Log AC50 (converted)): 631 nM
13 | C[C@H]1[C@@H](O)O[C@@H]2O[C@@]3(C)CC[C@H]4[C@H](C)CC[C@@H]1[C@@]24OO3 [dihydroartemisinin, reference compound] |  |  |  |  |  | AC50 ([1]; Plasmodium falciparum, DD2, 72 h, SYBR Green 72 h, read-out: AC50, Dd2 ABS parasites): 2 nM
